Laboratory results: ChEMBL document CHEMBL2095176, “GSK Tuberculosis Screening Data”
Values after ≈ are worked out from the molar mass of the structure shown.

Test system: Mycobacterium tuberculosis variant bovis BCG
Assay: microbe, parasite or virus in culture
Format: functional

Compound	MIC90 [µM]
Nc1nc(N)c2c(Sc3ccc4ccccc4c3)cccc2n1	4.4 (≈ 1.4 µg/mL)
O=C(Nc1cccc(C(=O)N2CCCC(c3nc4ccccc4s3)C2)c1)c1cccs1 (configuration not stated)	3.6 (≈ 1.61 µg/mL)
O=C1N(C2CCCCC2)CCS1(=O)=O	3.1 (≈ 0.674 µg/mL)
Cc1ccccc1CN1CCC(O)(c2ccc(Cl)c(C(F)(F)F)c2)CC1	4.3 (≈ 1.65 µg/mL)
COc1ccc2c(ccn2C(=O)OCCC2CCNCC2)c1	4.4 (≈ 1.33 µg/mL)
Cc1c(C(=O)[C@@H]2C[C@H]2CN(Cc2ccccn2)Cc2ccccn2)sc2ccccc12	7.1 (≈ 3.04 µg/mL)
Cc1c(Cl)ccc2sc(N(CCN(C)C)C(=O)c3ccc(S(C)(=O)=O)cc3)nc12	7 (≈ 3.16 µg/mL)
N#Cc1ccc(-c2ccc(OCC(=O)NNC(=O)c3ccco3)cc2)cc1	2.8 (≈ 1.01 µg/mL)
Cc1occc1C(=O)Nc1nc(-c2ccccn2)nc2ccsc12	1.1 (≈ 0.37 µg/mL)
COc1ccc(NC(=O)c2ccc(CN3CCCCC3)o2)c(OC)c1	7.2 (≈ 2.48 µg/mL)
Cc1cc(OCC(=O)NCc2ccccc2)c2cc(Br)ccc2n1	4.6 (≈ 1.77 µg/mL)
CC(C)NCc1ccc(-c2ccc(NS(=O)(=O)c3ccc(F)cc3)cc2)cc1	3.6 (≈ 1.43 µg/mL)
Cc1cc(OCC(=O)Nc2ccccc2)c2cc(Br)ccc2n1	2 (≈ 0.742 µg/mL)
CN(C)CCNCc1ccc(-c2cc(Cl)cc(Cl)c2)o1	2.7 (≈ 0.846 µg/mL)
N=C(Nc1nc(-c2ccccn2)cc2ccccc12)c1cccc(Cl)c1	0.6 (≈ 0.215 µg/mL)
O=C(O)COCC(=O)NNC(=O)c1ccncc1	2.3 (≈ 0.582 µg/mL)
O=c1cc(N2CCCNCC2)c(Cl)nn1CCCNS(=O)(=O)c1cccc(-c2ccccc2)c1	4.3 (≈ 2.16 µg/mL)
O=C(Nc1ccccc1-c1nc(Cl)cs1)OCC1CCNCC1	5.2 (≈ 1.83 µg/mL)
O=C(COc1ccc(-c2ccccc2)cc1)NNC(=O)c1ccco1	2.5 (≈ 0.841 µg/mL)

Compound	MIC90 [µM]
CC1=NN(C(=O)c2ccco2)C(O)(c2ccccc2)C1 (configuration not stated)	4.2 (≈ 1.14 µg/mL)
CC(=O)N(C)c1ccc(Oc2ccnc(NCc3c(C)cccc3C)n2)cc1	9.5 (≈ 3.58 µg/mL)
Cn1cc(-c2noc(/C=C3/CCN4CCCC[C@@H]4C3)n2)c2ccccc21	7.3 (≈ 2.54 µg/mL)
Cc1nn(CC(C)C)c2sc(C(=O)Nc3nc(-c4ccccn4)cs3)cc12	3.7 (≈ 1.47 µg/mL)
CCSc1ccc(C(=O)Nc2nc(-c3ccccn3)cs2)cc1	2.3 (≈ 0.785 µg/mL)
c1ccc(-c2nnc(Sc3ccnc(N4CCN(c5ccncc5)CC4)n3)n2CCCN2CCOCC2)cc1	6.3 (≈ 3.43 µg/mL)
Cc1cc(NC(=O)COc2ccc(Cl)cc2)n(-c2nc(C)c(C)c(=O)[nH]2)n1	4.8 (≈ 1.86 µg/mL)
COc1cc(OC)cc(C(=O)Nc2nc(-c3ccccn3)cs2)c1	3.4 (≈ 1.16 µg/mL)
CSc1ncc(C(=O)Nc2nc(-c3ccc(Cl)cc3)cs2)cn1	3.3 (≈ 1.2 µg/mL)
C=CCNCCS(=O)(=O)c1cccc(Nc2ncc(-c3cccc(F)c3)cn2)c1	9.6 (≈ 3.96 µg/mL)
NC1CCCN(c2ncnc(-c3ccc4c(c3)CCC4)n2)C1 (configuration not stated)	9.3 (≈ 2.75 µg/mL)
O=C(Nc1nc2c(F)cc(F)cc2s1)C1CCCN1S(=O)(=O)c1cccs1 (configuration not stated)	6.3 (≈ 2.71 µg/mL)
CCc1c(C)sc2nc(C)nc(SCC(=O)NCc3ccccc3)c12	7.2 (≈ 2.68 µg/mL)
O=C(c1ccc(-c2cccc(OCCN3CCC(c4ccc(F)cc4)CC3)c2)cc1)N1CCCC1	4.4 (≈ 2.08 µg/mL)
CCOc1ccc(-c2nc(CNCCc3ccc(F)cc3)cs2)cc1.O=C(O)C(=O)O	9.9
COc1ccc(-c2nnc3sc(Cc4ccccc4)nn23)cc1	2.7 (≈ 0.87 µg/mL)
O=C(NNC(=O)c1ccc([N+](=O)[O-])o1)c1ccc2ccccc2c1	7.2 (≈ 2.34 µg/mL)
COc1ccc(OC)c(S(=O)(=O)Nc2ccc(Nc3ccccc3)cc2OC)c1	8.8 (≈ 3.65 µg/mL)
O=C(c1cnn(C(=O)c2ccco2)c1)c1cc(F)ccc1O	4.2 (≈ 1.26 µg/mL)

Compound	MIC90 [µM]
Clc1ccc(-c2ccc3c(c2)CC(NCc2ccc(-n4cncn4)cc2)C3)cc1 (configuration not stated)	6.7 (≈ 2.69 µg/mL)
Cc1ccc(Cl)c2sc(N(CCN(C)C)C(=O)CS(=O)(=O)c3ccc(F)cc3)nc12	6.4 (≈ 3.01 µg/mL)
CCCOc1c(Br)cc(CNCC)cc1OCC	7.8 (≈ 2.47 µg/mL)
c1cc2c(s1)CCOC21CCN(Cc2ccc3c(c2)OCCO3)CC1	1.6 (≈ 0.572 µg/mL)
COc1ccc(-c2ccc(Nc3cccc(S(=O)(=O)CCN(C)Cc4cccs4)c3)nc2)cn1	7.9 (≈ 3.91 µg/mL)
COc1ccc(-c2ccc(Nc3cccc(S(=O)(=O)CCN(C)Cc4ccccc4)c3)nc2)cn1	7.4 (≈ 3.62 µg/mL)
C[C@H]1CN(Cc2cccc(-c3cc(CNC(=O)c4ccc(CC5CCNCC5)cc4)ccc3F)c2)CCN1	4.7 (≈ 2.42 µg/mL)
Cc1ccc(NC(=O)C2COc3ccccc3C2)cc1Cl (configuration not stated)	8.5 (≈ 2.57 µg/mL)
O=C(CSc1nc(-c2ccccc2)cs1)NNC(=O)c1cccs1	9.8 (≈ 3.68 µg/mL)
O=C(Nc1nc(-c2ccccn2)cs1)c1ccc2c(c1)OCO2	3 (≈ 0.976 µg/mL)
FC(F)(F)c1cc(SCc2ccccc2)nc(-c2ccccn2)n1	7.1 (≈ 2.47 µg/mL)
COc1ccc2cc(C(=O)Nc3ccc(C4CCN(C)CC4)cc3)sc2c1	2.9 (≈ 1.1 µg/mL)
N=C(N)c1ccc(CCN2CCC(c3nc(COCC(F)(F)F)c(-c4ccc(F)cc4)o3)CC2)cc1.O=C(O)C(F)(F)F.O=C(O)C(F)(F)F	8.2
O=C(Nc1nnc(-c2ccccc2)o1)c1ccc(F)cc1	5.8 (≈ 1.64 µg/mL)
CSc1ccc(-c2nnc(NC(=O)c3cc(Cl)sc3Cl)o2)cc1	9.4 (≈ 3.63 µg/mL)
COc1cc(C(=O)Nc2nc(-c3ccccn3)cs2)ccc1OCC(C)C	7 (≈ 2.68 µg/mL)
O=C(Nc1ccccc1-c1nc(Br)cs1)OCC1CCNCC1	8 (≈ 3.17 µg/mL)
O=C(Nc1nc(-c2ccccn2)cs1)c1cc2c(s1)CCCCC2	3.1 (≈ 1.1 µg/mL)
O=C(Nc1nc(-c2ccccn2)cs1)c1ccco1	4.5 (≈ 1.22 µg/mL)
